{"source": "the Kinase Knowledgebase extract (Sharma et al. 2016)", "key": {"EGFR (human) [1]": {"biological_target": "EGFR (human) (UniProt P00533)", "sequence (P00533 whole entry, looked up)": "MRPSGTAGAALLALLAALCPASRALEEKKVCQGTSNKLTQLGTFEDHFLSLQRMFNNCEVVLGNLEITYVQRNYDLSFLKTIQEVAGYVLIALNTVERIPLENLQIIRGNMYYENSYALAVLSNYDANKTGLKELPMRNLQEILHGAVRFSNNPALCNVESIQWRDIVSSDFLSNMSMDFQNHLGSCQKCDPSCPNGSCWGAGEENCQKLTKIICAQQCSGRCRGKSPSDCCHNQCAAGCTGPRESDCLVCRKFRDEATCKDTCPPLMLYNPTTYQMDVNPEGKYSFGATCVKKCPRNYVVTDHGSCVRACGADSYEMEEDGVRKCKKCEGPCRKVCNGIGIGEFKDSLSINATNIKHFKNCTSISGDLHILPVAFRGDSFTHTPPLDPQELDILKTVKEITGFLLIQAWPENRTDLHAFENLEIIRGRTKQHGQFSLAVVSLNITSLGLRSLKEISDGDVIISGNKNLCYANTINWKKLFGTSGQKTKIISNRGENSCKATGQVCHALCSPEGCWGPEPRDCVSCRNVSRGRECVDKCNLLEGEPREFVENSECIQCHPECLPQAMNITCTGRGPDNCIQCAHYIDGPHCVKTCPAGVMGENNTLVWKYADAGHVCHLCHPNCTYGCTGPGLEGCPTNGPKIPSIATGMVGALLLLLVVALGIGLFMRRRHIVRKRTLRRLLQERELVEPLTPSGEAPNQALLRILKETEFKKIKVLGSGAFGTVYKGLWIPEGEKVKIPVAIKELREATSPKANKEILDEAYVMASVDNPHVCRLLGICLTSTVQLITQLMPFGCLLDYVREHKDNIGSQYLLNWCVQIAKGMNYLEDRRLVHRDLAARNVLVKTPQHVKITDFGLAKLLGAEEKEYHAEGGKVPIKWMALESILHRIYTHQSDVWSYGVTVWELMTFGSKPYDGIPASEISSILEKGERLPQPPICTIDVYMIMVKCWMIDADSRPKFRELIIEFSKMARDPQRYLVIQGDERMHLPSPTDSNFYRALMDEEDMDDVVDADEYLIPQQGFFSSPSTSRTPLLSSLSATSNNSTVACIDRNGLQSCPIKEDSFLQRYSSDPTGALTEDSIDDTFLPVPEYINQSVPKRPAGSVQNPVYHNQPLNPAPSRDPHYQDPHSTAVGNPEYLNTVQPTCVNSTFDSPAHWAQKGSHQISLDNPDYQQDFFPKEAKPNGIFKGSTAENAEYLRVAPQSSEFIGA", "details": "a431"}, "EGFR (human) [2]": {"biological_target": "EGFR (human) (UniProt P00533)"}}, "data": [{"smiles": "Fc1cccc(COc2ccc(Nc3ncnc4ccc(-c5cc[nH]c5)cc34)cc2Cl)c1", "values": [{"measurement": "IC50", "setting": "EGFR (human) [1]", "value": 0.05, "unit": "µM"}, {"measurement": "IC50", "setting": "EGFR (human) [2]", "value": 0.004, "unit": "µM"}]}, {"smiles": "Clc1cc(Nc2ncnc3ccc(-c4ccc[nH]4)cc23)ccc1OCc1ccccn1", "values": [{"measurement": "IC50", "setting": "EGFR (human) [1]", "value": 0.09, "unit": "µM"}, {"measurement": "IC50", "setting": "EGFR (human) [2]", "value": 0.005, "unit": "µM"}]}, {"smiles": "Fc1cccc(COc2ccc(Nc3ncnc4ccc(-c5ccn(CCN6CCN(CC7CC7)CC6)c5)cc34)cc2Cl)c1", "values": [{"measurement": "IC50", "setting": "EGFR (human) [1]", "value": 1.53, "unit": "µM"}, {"measurement": "IC50", "setting": "EGFR (human) [2]", "value": 0.094, "unit": "µM"}]}, {"smiles": "Fc1ccc(Nc2ncnc3ccc(-n4cccc4)cc23)cc1Cl", "values": [{"measurement": "IC50", "setting": "EGFR (human) [1]", "value": 0.07, "unit": "µM"}, {"measurement": "IC50", "setting": "EGFR (human) [2]", "value": 0.061, "unit": "µM"}]}, {"smiles": "Fc1cccc(COc2ccc(Nc3ncnc4ccc(-c5ccn(CCCN6CCCCC6)c5)cc34)cc2Cl)c1", "values": [{"measurement": "IC50", "setting": "EGFR (human) [1]", "value": 1.98, "unit": "µM"}, {"measurement": "IC50", "setting": "EGFR (human) [2]", "value": 0.009, "unit": "µM"}]}, {"smiles": "Fc1cccc(COc2ccc(Nc3ncnc4ccc(-n5cccc5)cc34)cc2Cl)c1", "values": [{"measurement": "IC50", "setting": "EGFR (human) [1]", "value": 0.36, "unit": "µM"}, {"measurement": "IC50", "setting": "EGFR (human) [2]", "value": 0.003, "unit": "µM"}]}, {"smiles": "O=S1(=O)CCC(O)(CNCc2ccn(-c3ccc4ncnc(Nc5ccc(OCc6cccc(F)c6)c(Cl)c5)c4c3)c2)CC1", "values": [{"measurement": "IC50", "setting": "EGFR (human) [1]", "value": 0.03, "unit": "µM"}, {"measurement": "IC50", "setting": "EGFR (human) [2]", "value": 0.007, "unit": "µM"}]}, {"smiles": "COCCCN1CCOC(Cn2ccc(-c3ccc4ncnc(Nc5ccc6c(cnn6Cc6cccc(F)c6)c5)c4c3)c2)C1", "note": "(stereo not given)", "values": [{"measurement": "IC50", "setting": "EGFR (human) [1]", "value": 0.832, "unit": "µM"}, {"measurement": "IC50", "setting": "EGFR (human) [2]", "value": 0.291, "unit": "µM"}]}, {"smiles": "CCN(CC)CC(O)Cn1ccc(-c2ccc3ncnc(Nc4ccc5c(cnn5Cc5cccc(F)c5)c4)c3c2)c1", "note": "(stereo not given)", "values": [{"measurement": "IC50", "setting": "EGFR (human) [1]", "value": 0.12, "unit": "µM"}, {"measurement": "IC50", "setting": "EGFR (human) [2]", "value": 0.02, "unit": "µM"}]}, {"smiles": "Fc1cccc(COc2ccc(Nc3ncnc4ccc(-c5ccn(C[C@H]6COCCN6)c5)cc34)cc2Cl)c1", "values": [{"measurement": "IC50", "setting": "EGFR (human) [1]", "value": 0.562, "unit": "µM"}, {"measurement": "IC50", "setting": "EGFR (human) [2]", "value": 0.079, "unit": "µM"}]}, {"smiles": "O=C(NCCN1CCOCC1)c1cn(-c2ccc3ncnc(Nc4ccc(OCc5cccc(F)c5)c(Cl)c4)c3c2)cc1CCO", "values": [{"measurement": "IC50", "setting": "EGFR (human) [1]", "value": 2.36, "unit": "µM"}, {"measurement": "IC50", "setting": "EGFR (human) [2]", "value": 0.02, "unit": "µM"}]}, {"smiles": "O=S1(=O)CCC(CNCc2cc(-c3ccc4ncnc(Nc5ccc6c(cnn6Cc6cccc(F)c6)c5)c4c3)c[nH]2)CC1", "values": [{"measurement": "IC50", "setting": "EGFR (human) [1]", "value": 1.1, "unit": "µM"}, {"measurement": "IC50", "setting": "EGFR (human) [2]", "value": 0.007, "unit": "µM"}]}, {"smiles": "CN1CCN(Cc2cn(-c3ccc4ncnc(Nc5ccc(OCc6ccccn6)c(Cl)c5)c4c3)cc2CCO)CC1", "values": [{"measurement": "IC50", "setting": "EGFR (human) [1]", "value": 0.21, "unit": "µM"}, {"measurement": "IC50", "setting": "EGFR (human) [2]", "value": 0.026, "unit": "µM"}]}, {"smiles": "COCCNC(=O)c1cn(-c2ccc3ncnc(Nc4ccc(OCc5ccccn5)c(Cl)c4)c3c2)cc1CCO", "values": [{"measurement": "IC50", "setting": "EGFR (human) [1]", "value": 0.2, "unit": "µM"}, {"measurement": "IC50", "setting": "EGFR (human) [2]", "value": 0.078, "unit": "µM"}]}, {"smiles": "O=C(NCCN1CCOCC1)c1cn(-c2ccc3ncnc(Nc4ccc(OCc5ccccn5)c(Cl)c4)c3c2)cc1CCO", "values": [{"measurement": "IC50", "setting": "EGFR (human) [1]", "value": 0.025, "unit": "µM"}, {"measurement": "IC50", "setting": "EGFR (human) [2]", "value": 0.03, "unit": "µM"}]}, {"smiles": "O[C@H](CN1CCOCC1)Cn1ccc(-c2ccc3ncnc(Nc4ccc5c(cnn5Cc5cccc(F)c5)c4)c3c2)c1", "values": [{"measurement": "IC50", "setting": "EGFR (human) [1]", "value": 0.749, "unit": "µM"}, {"measurement": "IC50", "setting": "EGFR (human) [2]", "value": 0.019, "unit": "µM"}]}, {"smiles": "CC(=O)N[C@@H]1CCN(C(=O)Cn2ccc(-c3ccc4ncnc(Nc5ccc(OCc6cccc(F)c6)c(Cl)c5)c4c3)c2)C1", "values": [{"measurement": "IC50", "setting": "EGFR (human) [1]", "value": 0.626, "unit": "µM"}, {"measurement": "IC50", "setting": "EGFR (human) [2]", "value": 0.129, "unit": "µM"}]}, {"smiles": "O=C(c1cn(-c2ccc3ncnc(Nc4ccc(OCc5ccccn5)c(Cl)c4)c3c2)cc1CCO)N1CCOCC1", "values": [{"measurement": "IC50", "setting": "EGFR (human) [1]", "value": 0.05, "unit": "µM"}, {"measurement": "IC50", "setting": "EGFR (human) [2]", "value": 0.049, "unit": "µM"}]}, {"smiles": "CS(=O)(=O)CCN1CCOC(Cn2ccc(-c3ccc4ncnc(Nc5ccc6c(cnn6Cc6cccc(F)c6)c5)c4c3)c2)C1", "note": "(stereo not given)", "values": [{"measurement": "IC50", "setting": "EGFR (human) [1]", "value": 0.572, "unit": "µM"}, {"measurement": "IC50", "setting": "EGFR (human) [2]", "value": 0.236, "unit": "µM"}]}, {"smiles": "CC(=O)NC1CCN(CC(O)Cn2ccc(-c3ccc4ncnc(Nc5ccc(OCc6cccc(F)c6)c(Cl)c5)c4c3)c2)CC1", "note": "(stereo not given)", "values": [{"measurement": "IC50", "setting": "EGFR (human) [1]", "value": 1.28, "unit": "µM"}, {"measurement": "IC50", "setting": "EGFR (human) [2]", "value": 0.001, "unit": "µM"}]}, {"smiles": "OC(CN1CCC(N2CCCC2)CC1)Cn1ccc(-c2ccc3ncnc(Nc4ccc(OCc5cccc(F)c5)c(Cl)c4)c3c2)c1", "note": "(stereo not given)", "values": [{"measurement": "IC50", "setting": "EGFR (human) [1]", "value": 0.362, "unit": "µM"}, {"measurement": "IC50", "setting": "EGFR (human) [2]", "value": 0.039, "unit": "µM"}]}, {"smiles": "CCN(CC)CCNC(=O)c1cn(-c2ccc3ncnc(Nc4ccc(OCc5ccccn5)c(Cl)c4)c3c2)cc1CCO", "values": [{"measurement": "IC50", "setting": "EGFR (human) [1]", "value": 0.008, "unit": "µM"}, {"measurement": "IC50", "setting": "EGFR (human) [2]", "value": 0.025, "unit": "µM"}]}, {"smiles": "CCN(CC)Cc1ccn(-c2ccc3ncnc(Nc4ccc(OCc5cccc(F)c5)c(Cl)c4)c3c2)c1", "values": [{"measurement": "IC50", "setting": "EGFR (human) [1]", "value": 0.2, "unit": "µM"}, {"measurement": "IC50", "setting": "EGFR (human) [2]", "value": 0.009, "unit": "µM"}]}, {"smiles": "CCN(CC)CCNCc1cccn1-c1ccc2ncnc(Nc3ccc(OCc4cccc(F)c4)c(Cl)c3)c2c1", "values": [{"measurement": "IC50", "setting": "EGFR (human) [1]", "value": 0.77, "unit": "µM"}, {"measurement": "IC50", "setting": "EGFR (human) [2]", "value": 0.0225, "unit": "µM"}]}, {"smiles": "CCN(CC)CCNCc1ccn(-c2ccc3ncnc(Nc4ccc(OCc5cccc(F)c5)c(Cl)c4)c3c2)c1", "values": [{"measurement": "IC50", "setting": "EGFR (human) [1]", "value": 0.2, "unit": "µM"}, {"measurement": "IC50", "setting": "EGFR (human) [2]", "value": 0.008, "unit": "µM"}]}]}
